Assay results from article PMC10434227 (Microbiology Spectrum, 2023).
Structures can show the parent of a compound that is named as a salt. Where two headings read alike, the source gives them in different places.

What was measured:
MPXV = type: cell-based, monkeypox virus (MPXV)
rVACV Nluc/GFP [1] = type: cell-based, vaccinia virus (VACV)
in vitro [2] = conditions: human
rVACV Nluc/Scarlet [3] = type: cell-based, vaccinia virus (VACV)
[4] = tested on: MPXV USA-2003 (NR-2500) clade II; experiment: microbe, parasite or virus in culture; type: cell-based, monkeypox virus (MPXV)
rVACV Nluc/Scarlet [5] = experiment: microbe, parasite or virus in culture; type: cell-based, vaccinia virus (VACV)
in vitro [6] = conditions: human; remark: listed apart in the source
A549 cells [7] = tested on: A549 cells
A549 cells [8] = tested on: A549 cells; remark: listed apart in the source
rVACV Nluc/GFP [9] = experiment: microbe, parasite or virus in culture; type: cell-based, vaccinia virus (VACV)
[10] = Monkeypox virus, A549, read-out: EC50 against MPXV
[11] = Orthopoxvirus vaccinia, A549, read-out: EC50 Nluc
[12] = read-out: EC50 FP (GFP fluorescence)
[13] = read-out: EC50 FP (Scarlet fluorescence)
[14] = Orthopoxvirus vaccinia, A549, read-out: EC50 FP (GFP fluorescence)
[15] = Orthopoxvirus vaccinia, A549, read-out: EC50 FP (Scarlet fluorescence)

Molecule	extracellular viral titers (MPXV)	extracellular viral titers (rVACV Nluc/GFP [1])	CC50 (in vitro [2]) [nM]	extracellular viral titers (rVACV Nluc/Scarlet [3])	inhibitory activity against MPXV (in words) [4]	EC50 [4, 10] [nM]	EC50 ([4]; read-out: EC50 against MPXV) [nM]	EC50 (rVACV Nluc/Scarlet [5]; [11]) [nM]	EC50 (rVACV Nluc/Scarlet [5]; read-out: EC50 Nluc) [nM]	CC50 (in vitro [6]) [nM]	CC50 (A549 cells [7]) [nM]	CC50 (A549 cells [8]) [nM]	EC50 (rVACV Nluc/GFP [9]; [12]) [nM]	EC50 (rVACV Nluc/GFP [9]; read-out: EC50 Nluc) [nM]	EC50 (rVACV Nluc/Scarlet [5]; [13]) [nM]	EC50 (rVACV Nluc/GFP [9]; [14]) [nM]	EC50 (rVACV Nluc/GFP [9]; [11]) [nM]	EC50 (rVACV Nluc/Scarlet [5]; [15]) [nM]
O=C(NN1C(=O)[C@@H]2[C@@H]3C=C[C@@H]([C@H]4C[C@@H]34)[C@@H]2C1=O)c1ccc(C(F)(F)F)cc1 [Tecovirimat, tecovirimat]	dose-dependent decrease	dose-dependent decrease	> 50000	dose-dependent decrease	potently inhibited MPXV	120	150	80	70	> 50000								
2,2′-bi-1H-benzimidazole					did not inhibit MPXV infection		> 50000		> 50000		> 50000	> 50000	> 50000	> 50000	> 50000			
CO/C=C(/C(=O)OC)c1ccccc1Oc1cc(Oc2ccccc2C#N)ncn1 [Azoxystrobin, azoxystrobin]							10800		6100		27900	> 450000	7850	6120	7920			
O=C1c2ccccc2-n2c1nc1ccccc1c2=O [Tryptanthrin, tryptanthrin]						4790	4780	870	970						1380	1340	810	1390
S=C(NCc1ccc2c(c1)OCO2)N1CCN(c2ncnc3c2oc2ccccc23)CC1 [Amuvatinib, amuvatinib]						3470		6830	6630							3260	3890	4760
CC[C@@H](C(=O)O)[C@@H]1O[C@@H]([C@@H](C)[C@H](O)[C@H](C)C(=O)[C@H](CC)[C@H]2O[C@]3(C=C[C@@H](O)[C@]4(CC[C@@](C)([C@H]5CC[C@](O)(CC)[C@H](C)O5)O4)O3)[C@H](C)C[C@@H]2C)[C@@H](C)C[C@@H]1C [Narasin, narasin sodium salt]						50		20								10	30	20
CC[C@H](CC#N)OC(=O)N[C@@H](C)c1cccc(NC(=O)Nc2ccc(-c3cnco3)c(OC)c2)c1 [AVN-944]			> 50000			170		110		> 50000						70	70	130
CCCCCC[C@H]1C(=O)O[C@H](C)[C@H](NC(=O)c2cccc(NC=O)c2O)C(=O)O[C@@H](C)[C@@H]1OC(=O)CC(C)C [Antimycin A, antimycin A]						10		90					60	120		80	130	70
COc1c(C)c2c(c(O)c1C/C=C(\C)CCC(=O)O)C(=O)OC2 [Mycophenolic acid, mycophenolic acid]			> 150000			710		490		> 150000						590	430	460
CC(C)(C)[C@H]1CC[C@H](CC2=C(O)C(=O)c3ccccc3C2=O)CC1 [Buparvaquone, buparvaquone]						7220		1120					1950			1850	1070	1760
